{"source": "patent US20120082659A1", "about": "“Methods And Compositions Related To Synergistic Responses To Oncogenic Mutations” (priority 2007, published 2012)", "key": {"[1]": {"system": "mp53/Ras cells", "experiment": "Proliferation and morphology of mp53/Ras cells in adherent culture", "format": "cell-based, mouse", "settings": "for cell proliferation over time: mp53/Ras cells, 2.5 mM", "description": "(§1) These compounds affect human cancer cell line behavior in vitro in the millimolar range and even higher concentrations are required in vivo (Villar-Garea and Esteller, 2004)."}, "[2]": {"system": "mp53/Ras cells", "experiment": "Xenograft tumor formation by mp53/Ras cells in nude mice", "format": "in vivo, mouse", "settings": "for tumor formation in nude mice by drug-pre-treated cells: mp53/Ras cells pre-treated in vitro with 2.5 mM, xenograft, vs untreated cells; for % Change in Tumor Volume (Perturbed vs. Control): mp53/Ras cells with gene perturbation, s.c. in nude mice, 4 weeks, vs matched vector control", "procedure": "(§2) Murine mp53/Ras cells were grown at 39° C. for 2 days prior to injection. Human HT-29 and DLD-1 cells were grown in standard conditions, described above. Tumor formation was assessed by sub-cutaneous injection of 5×10^5 cells (mp53/Ras and DLD-1 cells) or 1.25×10^5 cells (HT-29) into CD-1 nude mice (Cr1:CD-1-Foxn1nu, Charles River Laboratories) in appropriate media (RPMI 1640 or DMEM) with no additives. For each replicate of all gene perturbations, 2-12 injections were performed for perturbed cells and vector controls, as indicated in FIGS. 12 and 16. Tumor size was measured by caliper at 2, 3 and 4 weeks post-injection. Tumor volume was calculated by the formula volume=(4/3)πr3, using the average of two radius measurements. Tumor reduction was calculated based on the average tumor volume following each gene perturbation as compared to the directly matched vector control tumors. Statistical significance of difference in tumor size was calculated by the Wilcoxn signed-rank test (Hollander, M. & Wolfe, D. A. Nonparametric Statistical Methods (Wiley-Interscience, Hoboken, N.J., 1998)), comparing tumors derived from perturbed cells with tumors induced by directly matching vector control cells.\nTumor formation was assessed by sub-cutaneous injection of cells into CD-1 nude mice (Cr1: CD-1-Foxn1^nu, Charles River Laboratories). Tumor size was measured by caliper at 2, 3 and 4 weeks post-injection. Significance of difference in tumor size was calculated by the Wilcoxn signed-rank test and by the t-test using directly matching vector control cells for each perturbation.\nFor tumor formation studies, cells were treated with HDACi as indicated above, then trypsinized, counted and injected sub-cutaneously into the flanks of CD-1 nude mice at a multiplicity of 5×10^5 cells per injection. Mice were observed and tumors measured for 4 weeks post-injection by caliper.\nMurine mp53/Ras cells were grown at 39° C. for 2 days prior to injection. Human CaPan-2 and PC3 cells were grown in standard conditions, described above. Tumor formation was assessed by sub-cutaneous injection of 5×10^5 mp53/Ras cells or 7.5×10^5 CaPan-2 or PC3 cells into CD-1 nude mice (Cr1: CD-1-Foxn1^nu, Charles River Laboratories) in appropriate media (RPMI 1640 or DMEM) with no additives. For each replicate of all gene perturbations, 2-12 injections were performed for perturbed cells and vector controls. Tumor size was measured by caliper weekly for up to 6 weeks post-injection. Tumor volume was calculated by the formula volume=(4/3)πr^3, using the average of two radius measurements. Tumor reduction was calculated based on the average tumor volume following each gene perturbation as compared to the directly matched vector control tumors. Statistical significance of difference in tumor size was calculated by both the Wilcoxn signed-rank test and the t-test to assess consistency of significance calls, comparing tumors derived from perturbed cells with tumors induced by directly matching vector control cells."}, "[3]": {"system": "cooperation response genes", "experiment": "TLDA QPCR of CRG expression in HDACi-treated mp53/Ras cells", "format": "cell-based, mouse", "settings": "2.5 mM, 3 days, 56 CRGs tested by TLDA", "procedure": "The YAMC cell system (Jat et al., 1991; Whitehead et al., 1993) and transformation of these cells by mp53/Ras are described elsewhere (Xia and Land, 2007). YAMC and mp53/Ras cells were cultured for two days at 39° C. in RPMI with 10% FBS without interferon-γ on collagen IV-coated dishes. Cells were then re-plated on collagen IV-coated dishes into the same medium containing either 2.5 mM NB, 2.5 mM VA, or no drug for 72 hours at a density of 4.58×10^5 cells per 15-cm dish. Cells were harvested for RNA isolation at this point, or used for biological assays as described below.\nThe TaqMan Low-Density Array (Applied Biosystems) consists of TaqMan qPCR reactions targeting the cooperation response genes available and control genes (18S rRNA, GAPDH) in a microfluidic card. TLDA were used to independently test gene expression differences observed in the CMap database which used Affymetrix arrays. To generate cDNA for qPCR analysis, quadruplicate samples of RNA was isolated from untreated YAMC cells or mp53/Ras cells treated with either 2.5 mM VA, 2.5 mM NB or no drug for 72 hours, using the RNeasy and Qiashredder kits (Qiagen). Ten μg of RNA per sample were mixed with 1× SuperScript II First Strand buffer, 10 mM DTT, 400 μM dNTP mixture, 0.3 ng random hexamer primer, 2 μL RNaseOUT RNase inhibitor and 2 μL of SuperScript II reverse transcriptase in a 100 μL reaction (all components from Invitrogen). RT reactions were carried out by denaturing RNA at 70° C. for 10 minutes, plunging RNA on to ice, adding other components, incubating at 42° C. for 1 hour and heat inactivating the RT enzyme by a final incubation at 70° C. for 10 minutes.\nFor each sample, 82 μL of cDNA was combined with 328 μl of nuclease free water (Invitrogen) and an equal volume of TaqMan Universal PCR Master Mix No AmpErase UNG (Applied Biosystems). The mixture was loaded into each of 8 ports on the card at 100 μL per port. Each reaction contained forward and reverse primer at a final concentration of 900 nM and a TaqMan MGB probe (6-FAM) at 250 nM final concentration. […]. The real-time RT-PCR amplifications were run on an ABI Prism 7900HT Sequence Detection System (Applied Biosystems) with a TaqMan Low Density Array Upgrade. Thermal cycling conditions were as follows: 2 min at 50° C., 10 min at 94.5° C., 40 cycles of 97° C. for 30 seconds, and annealing and extension at 59.7° C. for 1 minute. Each individual replicate cDNA sample was processed on a separate card.\nGene expression values were derived using SDS 2.2 software package (Applied Biosystems). Differential gene expression was calculated by the ΔΔCt method. Briefly, using threshold cycle (Ct) for each gene, change in gene expression was calculated for each sample comparison by the formulae: […]"}, "[4]": {"system": "mp53/Ras cells", "experiment": "Cell death / anoikis by TUNEL staining, mp53/Ras cells", "format": "cell-based, mouse", "settings": "methylcellulose without FBS or ITS-A", "procedure": "(§3) The cells were re-plated at 458,000 cells per 15 cm dish in 10% FBS medium and treated for three days with 2.5 mM NB or VA at 39° C. Cells were then trypsinized and (A), (B) suspended in methylcellulose supplemented with fresh NB or VA, 10% FBS, and ITS-A at 37,000 cells per mL, or (C) suspended in methylcellulose w/o FBS, or ITS-A at 150,000 cells per mL and incubated at 39° C. for three days. Cells were extracted from the methylcellulose by repeated re-suspension in PBS w/1% BSA and centrifugation, and briefly trypsinized to break up cell aggregates. The extracted cells were labeled with 10 μM BrdU for ninety minutes prior to harvesting, fixed in cold 80% ethanol, and stained with an anti-BrdU antibody and propidium iodide to measure cell cycle progression (A), or fixed in 4% paraformaldehyde, and TUNEL-stained to measure cell death (B), (C). Error bars represent standard deviation values derived from multiple independent measurements for each sample. […]\n(§4) For anoikis assays, cells were then trypsinized, counted and suspended in methylcellulose at a density of 1.5×10^5 cells/mL for an additional 72 hours in the absence of HDACi. […]\n(§5) Paraformaldehyde-fixed cells were pelleted and washed with PBS containing 0.1% BSA. […] TUNEL-stained cells were analyzed by flow cytometry using a FACScalibur (Becton Dickinson). The percentage of TUNEL-positive cells was analyzed using ModFit LT for Mac v2.0."}, "[5]": {"system": "YAMC cells", "experiment": "Cell death / anoikis by TUNEL staining, YAMC cells", "format": "cell-based, mouse", "settings": "methylcellulose without FBS or ITS-A", "procedure": "as §3, §4, §5"}, "[6]": {"system": "YAMC cells", "experiment": "Proliferation and morphology of YAMC cells in adherent culture", "format": "cell-based, mouse", "settings": "5 mM, three days, 10% FBS medium", "description": "as §1"}, "[7]": {"system": "HT-29 cells", "experiment": "Xenograft tumor formation by HT-29 colon cancer cells in nude mice", "format": "in vivo, human", "settings": "HT-29 cells with gene perturbation, vs matched vector control", "procedure": "as §2"}}}
{"molecule": "CCCC(=O)[O-].[Na+]", "note": "[sodium butyrate]", "values": [{"measurement": "cell proliferation over time", "setting": "[1]", "value": "completely inhibited"}, {"measurement": "cell morphology", "setting": "[1]; transformed cells, 5 mM, three days, 10% FBS medium", "value": "dramatic morphological change"}, {"measurement": "tumor formation in nude mice by drug-pre-treated cells", "setting": "[2]; four weeks", "value": "significantly smaller tumors"}, {"measurement": "NB Tumors", "setting": "[2]; mp53/Ras cells treated with 2.5 mM NB for three days before injection, 500,000 cells s.c. in CD1 nude mice, four weeks, tumors/injections", "value": "1/16"}, {"measurement": "proportion of CRGs whose expression is significantly altered (reversal of CRG signature)", "setting": "[3]", "value": "~55", "unit": "%"}, {"measurement": "proportion of CRGs whose expression is significantly altered (reversal of CRG signature)", "setting": "[3]; listed as NB", "value": "about 55%"}, {"measurement": "increase in cell death (TUNEL)", "setting": "[4]", "value": "greater than five-fold"}, {"measurement": "apoptosis (TUNEL)", "setting": "[5]", "value": "did not decrease apoptosis"}, {"measurement": "cell morphology", "setting": "[6]", "value": "unaffected"}]}
{"molecule": "CCCC(CCC)C(=O)O", "note": "[valproic acid]", "values": [{"measurement": "cell proliferation over time", "setting": "[1]", "value": "completely inhibited"}, {"measurement": "tumor formation in nude mice by drug-pre-treated cells", "setting": "[2]; four weeks", "value": "significantly smaller tumors"}, {"measurement": "proportion of CRGs whose expression is significantly altered (reversal of CRG signature)", "setting": "[3]", "value": "~55", "unit": "%"}, {"measurement": "proportion of CRGs whose expression is significantly altered (reversal of CRG signature)", "setting": "[3]; listed as VA", "value": "about 55%"}]}
{"molecule": "Plac8: shRNA-dependent stable knock-down of up-regulated CRG Plac8 (retroviral) (sense CTGGCAGACCAGCCTGTGTTT; the letters are possibly those of the target site)", "values": [{"measurement": "% Change in Tumor Volume (Perturbed vs. Control)", "setting": "[7]", "value": "−100.00", "unit": "%"}, {"measurement": "% Change in Tumor Volume (Perturbed vs. Control)", "setting": "[2]", "value": "−100", "unit": "%"}]}
{"molecule": "Rgs2: shRNA-dependent stable knock-down of up-regulated CRG Rgs2 (retroviral) (sense GCGCAGCTCTGGGCAGAAG; the letters are possibly those of the target site)", "values": [{"measurement": "% Change in Tumor Volume (Perturbed vs. Control)", "setting": "[2]", "value": "−60", "unit": "%"}]}
{"molecule": "Slc14a1: shRNA-dependent stable knock-down of up-regulated CRG Slc14a1 (retroviral) (sense TCCTGATTCTGGTGGGACT; the letters are possibly those of the target site)", "values": [{"measurement": "% Change in Tumor Volume (Perturbed vs. Control)", "setting": "[2]", "value": 180, "unit": "%"}]}
{"molecule": "Sod3: shRNA-dependent stable knock-down of up-regulated CRG Sod3 (retroviral) (sense GGCGACACGCATGCCAAAG; target site or template, no part of the molecule)", "values": [{"measurement": "% Change in Tumor Volume (Perturbed vs. Control)", "setting": "[2]", "value": "−72", "unit": "%"}]}
